# US12384777B2 (Tay Therapeutics Limited, priority 2019, dated 2025)
# Read-outs that look alike come from different tables or passages of the source.
# Columns and labels:
# [1] = Solubility in topical formulations; format: physicochemical; conditions: thermodynamic from solid
# Procedure: The solubilities of solid exemplary compounds were determined in a selection of solvents and solvent combinations (Transcutol, 50:50 Transcutol:water, Labrasol, propylene glycol and 1:5:4 ethanol:propylene glycol:water), after equilibration. An appropriate volume of each combination was added to a manual weighing of solid compound to provide a 20 mg/mL concentration. The resulting suspension was shaken at 1000 rpm for 5 hr at 32° C. before centrifugation at 13,000×g for 10 min to pellet any precipitate. The supernatant solution was removed and inserted into a HPLC vial and quantified by HPLC-UV against a calibration of a known concentration of the compound in DMSO.
# [2] = Stability in human skin S9 fraction; format: in vitro ADME; conditions: 0.3 mg/mL S9, NADPH, UDPGA, 0.5 μM compound; for half-life at 0.5 μM: human, human skin S9 fraction, pH 7.4, read-out: T1/2 (min) in human skin S9 fractions
# Procedure: An incubation mixture was prepared containing 50 mM potassium phosphate buffer, pH 7.4), 0.3 mg/mL human skin S9 (Sekisui Xenotech), NADPH (final conc 0.8 mg/mL), UDPGA (final conc 0.16 mg/mL) and warmed to 37° C. for 5 min. The reaction was initiated upon addition of test compound (final concentration 0.5 μM). Immediately, at time zero, then at 3, 6, 15, 30, 60, 120 and 180 min, an aliquot (50 μL) of the incubation mixture was removed and mixed with acetonitrile (100 μL) to terminate the reaction. Internal standard was added to all samples, the samples centrifuged to sediment precipitated protein and the plates then sealed prior to UPLC-MS/MS analysis using a Quattro Premier XE (Waters corporation, USA).
# Grafit (Erithacus Ltd) was used to calculate the exponential decay and consequently the rate constant (k) from the ratio of peak area of test compound to internal standard at each timepoint. The half life (T1/2) of each test compound was determined using the following equation: T1/2=0.693/k
# [3] = tested on: CD4+ T-cells stimulated by CD2, CD3 and CD28 antibodies; experiment: Cellular activity IL-4: reduction of IL-4 levels in activated CD4+ T-cells; format: cell-based, human; conditions: Homo sapiens, T-cell
# Procedure: • 1. CD4^+ T-cells are isolated from cryopreserved human peripheral blood mononuclear cells (PBMCs) using EasySep™ Kit (Cat. No. 17952, Stemcell Technologies). • 2. CD2, CD3 and CD28 antibodies coated beads from T cell Activation/Expansion Kit (Cat. No. 130-091-441, Miltenyi Biotec) are added to the CD4^+ T-cells at a bead-to-cell ratio of 1:2. • 3. CD4^+ T-cells along with the beads are seeded at 2×10^5 cells/well in a round bottom 96-well plate and treated with different compounds and controls in a total volume of 200 μl. • 4. The cells are cultured for 48 hrs at 37° C., 5% CO2. • 5. Supernatant is collected and IL-4 is analysed by ELISA.
# BRD4 BD1 = BRD4 BD1 (Homo sapiens (Human), UniProt O60885); experiment: Bromodomain binding assay (T7 phage display, qPCR), BRD4 BD1
# Procedure: (§1) T7 phage strains displaying bromodomains were grown in parallel in 24-well blocks in an E. coli host derived from the BL21 strain. E. coli were grown to log-phase and infected with T7 phage from a frozen stock (multiplicity of infection=0.4) and incubated with shaking at 32° C. until lysis (90-150 min). The lysates were centrifuged (5,000×g) and filtered (0.2 μm) to remove cell debris. Streptavidin-coated magnetic beads were treated with biotinylated small molecule or acetylated peptide ligands for 30 min at RT to generate affinity resins for bromodomain assays. The ligated beads were blocked with excess biotin and washed with blocking buffer (SeaBlock (Pierce), 1% BSA, 0.05% Tween 20, 1 mM DTT) to remove unbound ligand and to reduce non-specific phage binding. Binding reactions were assembled by combining bromodomains, ligated affinity beads, and test compounds in 1× binding buffer (16% SeaBlock, 0.32×PBS, 0.02% BSA, 0.04% Tween 20, 0.004% Sodium azide, 7.9 mM DTT). Test compounds were prepared as 1000× stocks in 100% DMSO and subsequently diluted 1:25 in MEG. The compounds were then diluted directly into the assays such that the final concentrations of DMSO and MEG were 0.1% and 2.4%, respectively. All reactions were performed in polypropylene 384-well plates in a final volume of 0.02 ml. The assay plates were incubated at RT with shaking for 1 hr and the affinity beads were washed with wash buffer (1×PBS, 0.05% Tween 20). The beads were then re-suspended in elution buffer (1×PBS, 0.05% Tween 20, 2 μM non-biotinylated affinity ligand) and incubated at RT with shaking for 30 min. The bromodomain concentration in the eluates was measured by quantitative polymerase chain reaction (qPCR).
# (§2) An 11-point 3-fold serial dilution of each test compound was prepared in 100% DMSO at 1000× final test concentration. All compounds were distributed by acoustic transfer (non-contact dispensing) in 100% DMSO. The compounds were then diluted directly into the assays such that the final concentration of DMSO was 0.09%. Most dissociation constants were determined using a compound top concentration=10,000 nM. If the initial dissociation constant determined was <0.169 nM (the lowest concentration tested), the measurement was repeated with a serial dilution starting at a lower top concentration.
# (§3) The same bromodomain assay procedure as that outlined above was used. Example compounds were screened at 30 times their Kd, and results for primary screen binding interactions are reported as ‘% Ctrl’, where lower numbers indicate stronger hits in the matrix.
# human liver hepatocytes = experiment: Intrinsic clearance in human liver hepatocytes; format: in vitro ADME; conditions: human cryopreserved hepatocytes, 0.5 μM test compound
# Procedure: Vials of human cryopreserved hepatocytes, supplied by Life Technologies, were thawed according to manufacturer's instructions and cells re-suspended in Williams Medium E (WME) containing cell maintenance supplement pack (CM4000, Life Technologies). Hepatocytes were incubated in suspension (0.5 million cells/mL) in 48 well non-collagen coated cell culture plates for 10 min at 37° C., 5% CO2. Upon addition of an equal volume of supplemented WME containing 1 μM test compound, an aliquot of incubation solution was removed to acetonitrile containing internal standard (final concentration 0.5 μM test compound and a cell density of 0.25 million cells/mL). Similarly, aliquots were removed at 3, 6, 9, 15, 30, 45, 60, 90 and 120 min. 100 μL of 80:20 water:acetonitrile was added to all samples and the analysis plate was centrifuged for 10 min at RT prior to injection and analysis of samples by UPLC-MS/MS. The response (area ratio of test compound to internal standard) was plotted against time using an exponential decay model from which rate of disappearance was calculated.
# [4] = Hydrolytic stability at a range of pHs; format: physicochemical; conditions: 60° C., 6 days
# Procedure: To test the hydrolytic stability a 1 mg/mL solution of test materials was made in DMSO (0.1% solution). To 300 μL of each solution in a HPLC vials was added 1200 μL of one of the following: pH 4.0 buffer—left at 60° C. for 5 days. Samples taken t=0 hr and 6 days pH 5.5 buffer—left at 60° C. for 5 days. Samples taken t=0 hr and 6 days pH 7.4 buffer—left at 60° C. for 5 days. Samples taken t=0 hr and 6 days A 100 μL aliquot was taken at each time point and added to 900 μL of DMSO. This sample was used to determine % decomposition.
# % decomposition was measured with a Bruker MicrOTOF II focus ESI Mass Spectrometer connected in parallel to Dionex Ultimate 3000 RSLC system with diode array detector.
# BRD2(2) = BRD2(2) (Homo sapiens (Human), UniProt P25440); experiment: Bromodomain binding assay, BRD2(2)
# Procedure: as §1
# (§4) An 11-point 3-fold serial dilution of each test compound was prepared in 100% DMSO at 1000× final test concentration. […] Most dissociation constants were determined using a compound top concentration=10,000 nM. If the initial dissociation constant determined was <0.169 nM (the lowest concentration tested), the measurement was repeated with a serial dilution starting at a lower top concentration. […]
# BRD4 BD2 = BRD4 BD2 (Homo sapiens (Human), UniProt O60885); experiment: Bromodomain binding assay (T7 phage display, qPCR), BRD4 BD2
# Procedure: as §1, §2, §3
# BRD2(1) = BRD2(1) (Homo sapiens (Human), UniProt P25440); experiment: Bromodomain binding assay, BRD2(1)
# Procedure: as §1, §4
# [5] = tested on: healthy human skin stimulated by a Th2 or Th17 biasing cocktail; experiment: Th2 and Th17 stimulation of human skin explants, IL-4 / IL-17A mRNA; format: cell-based
# Procedure: • 1. Freshly excised healthy human skin tissue from abdominoplasties is defatted, cleaned and sectioned into 7 mm biopsies. • 2. The biopsies are placed in Transwell® inserts with the epidermis apical and exposed to air and the dermis submerged in media in the basal chamber. • 3. The biopsies are pre-treated overnight at 37° C., 5% CO2 with different compounds and controls added to the media in the basal chamber. • 4. The next day, contents of the basal chamber is replaced with fresh media containing the test compound and a stimulation cocktail for either Th2 inflammation (proprietary Medpharm cocktail) or Th17 inflammation (mix of antibodies against CD3, CD28, IL-4, IFNγ and recombinant IL-1β, IL-6, IL-21, TGF-β). • 5. The biopsies are incubated at 37° C., 5% CO2 for a further 24 hrs. • 6. After harvesting, the biopsies are cut in half, and one half is homogenized and used for RNA extraction by standard methods. IL-4 or IL-17A is assessed by RT-qPCR.
# BRD3(1) = BRD3(1) (Homo sapiens (Human), UniProt Q15059); experiment: Bromodomain binding assay, BRD3(1)
# Procedure: as §1, §4
# BRDT(1) = BRDT(1) (Homo sapiens (Human), UniProt Q58F21); experiment: Bromodomain binding assay, BRDT(1)
# Procedure: as §1, §4
# BRDT(2) = BRDT(2) (Homo sapiens (Human), UniProt Q58F21); experiment: Bromodomain binding assay, BRDT(2)
# Procedure: as §1, §4
# BRD3(2) = BRD3(2) (Homo sapiens (Human), UniProt Q15059); experiment: Bromodomain binding assay, BRD3(2)
# Procedure: as §1, §4
# [6] = Labrasol, oil or lipid, 5 hr at 32° C., read-out: Solubility in LB (Labrasol)
# [7] = Transcutol, organic solvent or mixture, 5 hr at 32° C., read-out: Solubility in TC (Transcutol)
# [8] = Transcutol:water 1:1, aqueous with cosolvent or surfactant or cyclodextrin, 5 hr at 32° C., read-out: Solubility in TC:water 1:1
# [9] = propylene glycol, organic solvent or mixture, 5 hr at 32° C., read-out: Solubility in PG (Propylene glycol)
# [10] = 48 hrs, ELISA, read-out: EC50 reduction of IL-4 levels
# [11] = read-out: cellular EC50 values, reduction of IL-4 levels
# [12] = single point, screened at 30 times Kd, lower numbers indicate stronger hits
# Chain of BRD2(2) (P25440 344-453): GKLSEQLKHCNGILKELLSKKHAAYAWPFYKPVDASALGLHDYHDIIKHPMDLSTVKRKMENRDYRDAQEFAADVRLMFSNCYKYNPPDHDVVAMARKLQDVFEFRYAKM
# Chain of BRD3(2) (Q15059 306-415): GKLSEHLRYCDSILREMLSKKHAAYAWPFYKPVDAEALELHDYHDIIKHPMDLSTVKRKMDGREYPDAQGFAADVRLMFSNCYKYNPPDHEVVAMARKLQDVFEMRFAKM
# Chain of BRD2(1) (P25440 74-180): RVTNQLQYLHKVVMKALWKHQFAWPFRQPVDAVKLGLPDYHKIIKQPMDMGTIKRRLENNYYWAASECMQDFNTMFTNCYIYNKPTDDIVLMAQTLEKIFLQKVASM
# Chain of BRD3(1) (Q15059 34-140): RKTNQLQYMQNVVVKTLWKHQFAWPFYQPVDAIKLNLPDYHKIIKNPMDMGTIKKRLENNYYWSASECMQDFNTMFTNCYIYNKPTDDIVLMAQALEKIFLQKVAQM
structure (smiles),measurement,setting,value
"Cn1cc(-c2cc(O)ccc2Oc2ccccc2)c2cc[nH]c2c1=O [Example 6, 4-(5-hydroxy-2-phenoxyphenyl)-6-methyl-1,6-dihydro-7H-pyrrolo[2,3-c]pyridin-7-one]",solubility at 5 hr,[1]; [6],> 10000 µg/mL
same,solubility at 5 hr,[1]; [7],> 10000 µg/mL
same,solubility at 5 hr,[1]; [8],1000 to 10000 µg/mL
same,solubility at 5 hr,"[1]; ethanol:propylene glycol:water 1:5:4, aqueous with cosolvent or surfactant or cyclodextrin, 5 hr at 32° C., read-out: Solubility in EtOH:PG:water 1:5:4",1000 to 10000 µg/mL
same,solubility at 5 hr,[1]; [9],> 10000 µg/mL
same,solubility at 5 hr,"[1]; topical formulation solvents and solvent combinations, 32 °C, organic solvent or mixture, read-out: solubilities in the formulations described",> 1000 µg/mL
same,T1/2 (min) in human skin S9 fractions,[2],>120 min
same,half-life at 0.5 μM,[2],> 120 min
same,EC50,[3]; [10],10 to 100 nM
same,EC50,[3]; [11],< 100 nM
same,Kd,BRD4 BD1; read-out: BRD4 BD1 Kd,≤ 10 nM
same,"Intrinsic clearance, % Liver Blood Flow",human liver hepatocytes,94 % Liver Blood Flow
"Cn1cc(-c2ccc(O)cc2Oc2ccccc2)c2cc[nH]c2c1=O [Example 2, 4-(4-hydroxy-2-phenoxyphenyl)-6-methyl-1,6-dihydro-7H-pyrrolo[2,3-c]pyridin-7-one]",solubility at 5 hr,[1]; [6],1000 to 10000 µg/mL
same,solubility at 5 hr,[1]; [7],> 10000 µg/mL
same,solubility at 5 hr,[1]; [8],1000 to 10000 µg/mL
same,solubility at 5 hr,[1]; [9],1000 to 10000 µg/mL
same,half-life at 0.5 μM,[2],> 120 min
same,Kd,BRD4 BD1; read-out: BRD4 BD1 Kd,10 to 100 nM
same,pH 4.0 % decomposition,[4]; pH 4.0 buffer,15%
same,pH 5.5 % decomposition,[4]; pH 5.5 buffer,30%
same,pH 7.4 % decomposition,[4]; pH 7.4 buffer,0%
same,"Intrinsic clearance, % Liver Blood Flow",human liver hepatocytes,88 % Liver Blood Flow
"CCNC(=O)c1cc2c(-c3ccn(C)c(=O)c3Oc3c(C)cc(F)cc3C)cn(C)c(=O)c2[nH]1 [Example 41, N-ethyl-4-(3-(4-fluoro-2,6-dimethylphenoxy)-1-methyl-2-oxo-1,2-dihydropyridin-4-yl)-6-methyl-7-oxo-6,7-dihydro-1H-pyrrolo[2,3-c]pyridine-2-carboxamide]",Kd,BRD2(2); dose response,< 10 nM
same,BRD2(2) % Ctrl,BRD2(2); [12],0.1 % Ctrl
same,Kd,"BRD4 BD2; dose response, read-out: BRD4(2) Kd",< 10 nM
same,Kd,BRD4 BD2; read-out: BRD4 BD2 Kd,≤ 10 nM
same,BRD4(2) % Ctrl,BRD4 BD2; [12],8.7 % Ctrl
same,Kd,BRD2(1); dose response,> 3000 nM
same,BRD2(1) % Ctrl,BRD2(1); [12],100 % Ctrl
same,% reduction in IL-4 mRNA (IL-4),"[5]; 2.5 μM, Th2 biasing cocktail",++ (> 50% reduction)
same,% reduction in IL-17A mRNA (IL-17),"[5]; 2.5 μM, Th17 biasing cocktail",+++ (> 75% reduction)
same,reduction of IL-4 or IL-17 levels,[5]; Th2 or Th17 biasing cocktail,> 50%
same,EC50,[3]; [10],10 to 100 nM
same,EC50,[3]; [11],< 100 nM
same,Kd,BRD3(1); dose response,> 3000 nM
same,BRD3(1) % Ctrl,BRD3(1); [12],85 % Ctrl
same,Kd,BRDT(1); dose response,> 3000 nM
same,BRDT(1) % Ctrl,BRDT(1); [12],100 % Ctrl
same,Kd,BRDT(2); dose response,< 10 nM
same,BRDT(2) % Ctrl,BRDT(2); [12],13 % Ctrl
same,Kd,"BRD4 BD1; dose response, read-out: BRD4(1) Kd",> 3000 nM
same,Kd,BRD4 BD1; read-out: BRD4 BD1 Kd,> 1000 nM
same,BRD4(1) % Ctrl,BRD4 BD1; [12],90 % Ctrl
same,Kd,BRD3(2); dose response,< 10 nM
same,BRD3(2) % Ctrl,BRD3(2); [12],2.3 % Ctrl
same,"Intrinsic clearance, % Liver Blood Flow",human liver hepatocytes,<34 % Liver Blood Flow
